The source of these data is US8586755B2, “Substituted nicotinamides as KCNQ2/3 modulators” (Grünenthal GmbH, priority 2009, dated 2013).

pEC50: −log10 of the molar value.

Experiment [1] concerns Sprague-Dawley rats. Nature of the experiment: Low-intensity tail flick in the rat. It is filed as in vivo. The following applies: MPE. An excerpt: Low-Intensity Tail Flick in the Rat
The antinociceptive effectiveness of the test substance towards an acute, noxious thermal stimulus was studied in the focal ray (tail flick) test in the rat according to the method of D'Amour and Smith (J. Pharm. Exp. Ther. 72, 74 79 (1941)). Male Sprague-Dawley rats (breeder: Janvier, Le Genest St. Isle, France) weighing from 200 to 250 g were used for this purpose. The animals were accommodated individually in special test compartments and the base of the tail was exposed to the focused ray of an analgesia meter (model 2011, Rhema Labortechnik, Hofheim, Germany). 10 animals were used per group. Before a substance according to the invention was administered, the withdrawal latency (time from switching on of the focal ray to the sudden withdrawal of the tail) was determined twice at an interval of five minutes and the mean value was defined as the control latency time. The intensity of the focal ray was chosen so that the control latency time was 7 to 9 seconds. Measurement of the withdrawal latency was then repeated 10, 20, 30 and 60 minutes after peroral administration of substance. The antinociceptive action of the test substance was determined as the increase in the withdrawal latency time according to the following formula: MPE[%]=[(T1−T0)/(T2−T0)]×100 where: T0=control latency time before administration of substance, T1=latency time after administration of substance, T2=maximum exposure time to the focal ray (30 seconds), MPE=maximum possible effect.
Variance analysis (repeated measures ANOVA) was used to test for statistically significant differences between the substance group and the vehicle group. The level of significance was set at ≦0.05.

In experiment [2] the target is T1, KCNQ2/3 channels (Homo sapiens, UniProt O43525+O43526).
T1 construct: expressed in transfected cells
Nature of the experiment: Fluorescence assay using a voltage sensitive dye (fluorimetry). Type of experiment: cell-based. The following applies: CHO-K1 cells expressing KCNQ2/3 channels; for pEC50: agonistic activity; for Emax: read-out: Fluorimetry % efficacy (retigabine 50 μM = 100%). In short, it runs like this: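 Agonist EC50s come from the F2 vs F1 fluorescence comparison, F2 taken at the peak after KCl depolarisation (92 mM final) and F1 after 30 min compound exposure at room temperature. Assay uses KCNQ2/3-expressing CHO-K1 cells stained 45 min with a red voltage-sensitive dye in pH 7.4 ES buffer.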

Where [3] appears, read: po, read-out: Low-intensity tail flick rat p.o. % effect (dose [mg/kg]).

By pEC50 is commonly meant the negative decadic logarithm of the EC50, by convention in mol/L. Low values mean a high EC50, high ones a low EC50. `O=C(NCC1CC2CCC1C2)c1cccnc1SCCCc1cccc(C(F)(F)F)c1` (stereo not drawn) [compound 27, N-(5-Bicyclo[2.2.1]heptanyl-methyl)-2-[3-[3-(trifluoromethyl)phenyl]-propylsulfanyl]-pyridine-3-carboxylic acid amide]: in experiment [1] (setting [3]), the inhibition in vivo at 10 mg/kg stood at 18%. This molecule also had a pEC50 in experiment [2] of 7.07. The Emax in experiment [2] (retigabine 50 μM = 100%) was found to be 210%.
Take `O=C(NCC1CCCCC1)c1cccnc1SCCCc1ccc(F)cc1` [compound 40, N-(Cyclohexyl-methyl)-2-[3-(4-fluorophenyl)-propylsulfanyl]-pyridine-3-carboxylic acid amide]: the inhibition in vivo at 21.5 mg/kg in experiment [1] (po, dose 21.5 mg/kg, read-out: Low-intensity tail flick rat p.o. % effect (dose [mg/kg])) came to 26%. The pEC50 in experiment [2] is 6.89. In experiment [2] (retigabine 50 μM = 100%), the Emax was 144%.
Take `O=C(NCC1CC2CCC1C2)c1cccnc1SCCCc1ccc(F)cc1` (stereo not drawn) [compound 51]: in experiment [1] (dose 21.5 mg/kg), the “Low-intensity tail flick rat p.o. % effect (dose [mg/kg])” value is 49 (21.5) %. The molecule further showed a pEC50 in experiment [2] of 6.70. Besides, in experiment [2] (retigabine 50 μM = 100%), the “Fluorimetry % efficacy (retigabine 50 μM = 100%)” value amounted to 192%.
Take `O=C(NCC1CC2CCC1C2)c1cccnc1SCCCc1ccc(C(F)(F)F)c(F)c1` (stereo not drawn) [compound 53, N-(5-Bicyclo[2.2.1]heptanyl-methyl)-2-[3-[3-fluoro-4-(trifluoromethyl)-phenyl]-propylsulfanyl]-pyridine-3-carboxylic acid amide]: in experiment [1] (setting [3]), the inhibition in vivo at 10 mg/kg was 0%. In experiment [2], this molecule gave a pEC50 of 6.52. Also, the Emax in experiment [2] (retigabine 50 μM = 100%) was found to be 220%.
`O=C(NCC1CC2CCC1C2)c1cccnc1SCCCc1ccc(F)c(C(F)(F)F)c1` (stereo not drawn) [compound 54, N-(5-Bicyclo[2.2.1]heptanyl-methyl)-2-[3-[4-fluoro-3-(trifluoromethyl)-phenyl]-propylsulfanyl]-pyridine-3-carboxylic acid amide]: the inhibition in vivo at 10 mg/kg in experiment [1] (setting [3]) is 20%. This molecule had a pEC50 in experiment [2] of 6.88. Also, in experiment [2] (retigabine 50 μM = 100%), the Emax worked out at 240%.
In the same order, the values of `O=C(NCc1ccc(F)cc1)c1cccnc1SCCCc1ccc(F)cc1` [compound 65, N-[(4-Fluorophenyl)-methyl]-2-[3-(4-fluorophenyl)-propylsulfanyl]-pyridine-3-carboxylic acid amide] are 49%, 7.40 and 97%.
In the same order, the values of `O=C(NCC1CC2CCC1C2)c1cccnc1SCCCc1cc(F)c(F)c(F)c1` (stereo not drawn) [compound 68, N-(5-Bicyclo[2.2.1]heptanyl-methyl)-2-[3-(3,4,5-trifluoro-phenyl)-propylsulfanyl]-pyridine-3-carboxylic acid amide] are 32%, 7.19 and 280%.
In experiment [2], `COC(C)CNC(=O)c1cccnc1SCCC(F)(F)c1ccc(F)cc1` (stereo not drawn) [compound 194, 2-[[3,3-Difluoro-3-(4-fluorophenyl)-propyl]sulfanyl]-N-(2-methoxy-propyl)-pyridine-3-carboxylic acid amide] gave a negative-log EC50 (pEC50) of 6.63. The Emax in experiment [2] (retigabine 50 μM = 100%) is 203%.
In experiment [2], `CCC(CNC(=O)c1cccnc1SCCC(F)(F)c1ccc(F)cc1)OC` (stereo not drawn) [compound 195, 2-[[3,3-Difluoro-3-(4-fluorophenyl)-propyl]sulfanyl]-N-(2-methoxy-butyl)-pyridine-3-carboxylic acid amide] gave a pEC50 of 7.32. The Emax in experiment [2] (retigabine 50 μM = 100%) stood at 122%.
In turn, `COC(=O)CCNC(=O)c1cccnc1SCCC(F)(F)c1ccc(F)cc1` [compound 196, 3-[[2-[[3,3-Difluoro-3-(4-fluorophenyl)-propyl]sulfanyl]-pyridine-3-carbonyl]amino]-propionic acid methyl ester] gave a pEC50 in experiment [2] of 5.43. The Emax in experiment [2] (retigabine 50 μM = 100%) is 190%.
In the same order, the values of `O=C(O)CCNC(=O)c1cccnc1SCCC(F)(F)c1ccc(F)cc1` [compound 197, 3-[[2-[[3,3-Difluoro-3-(4-fluorophenyl)-propyl]sulfanyl]-pyridine-3-carbonyl]amino]-propionic acid] are 4.83 and 128%.
In turn, `CN(C)CCNC(=O)c1cccnc1SCCC(F)(F)c1ccc(F)cc1` [compound 198, 2-[[3,3-Difluoro-3-(4-fluorophenyl)-propyl]sulfanyl]-N-(2-dimethylaminoethyl)-pyridine-3-carboxylic acid amide] gave a pEC50 in experiment [2] of 5.05. Besides, in experiment [2] (retigabine 50 μM = 100%), the Emax is 110%.
In the same order, the values of `CC(CCc1ccc(F)c(F)c1)Sc1ncccc1C(=O)NCc1ccc(F)cc1` (stereo not drawn) [compound 199, 2-[[3-(3,4-Difluoro-phenyl)-1-methyl-propyl]sulfanyl]-N-[(4-fluorophenyl)-methyl]-pyridine-3-carboxylic acid amide] are 7.70 and 124%.
In experiment [2], `CC(C)CCNC(=O)c1cccnc1SC(C)CCc1ccc(F)c(F)c1` (stereo not drawn) [compound 200, 2-[[3-(3,4-Difluoro-phenyl)-1-methyl-propyl]sulfanyl]-N-(3-methyl-butyl)-pyridine-3-carboxylic acid amide] showed a pEC50 of 7.40. In experiment [2] (retigabine 50 μM = 100%), the Emax amounted to 230%.
In the same order, the values of `CC(CCc1cccc(F)c1)Sc1ncccc1C(=O)NCc1ccc(F)cc1` (stereo not drawn) [compound 201, N-[(4-Fluorophenyl)-methyl]-2-[[3-(3-fluorophenyl)-1-methyl-propyl]sulfanyl]-pyridine-3-carboxylic acid amide] are 7.40 and 128%.
`CC(C)CCNC(=O)c1cccnc1SC(C)CCc1cccc(F)c1` (stereo not drawn) [compound 202, 2-[[3-(3-Fluorophenyl)-1-methyl-propyl]sulfanyl]-N-(3-methyl-butyl)-pyridine-3-carboxylic acid amide] gave a pEC50 in experiment [2] of 7.15. The Emax in experiment [2] (retigabine 50 μM = 100%) came to 235%.
Consider `CC(C)CCNC(=O)c1cccnc1SC(C)CCc1cccc(C(F)(F)F)c1` (stereo not drawn) [compound 203, N-(3-Methyl-butyl)-2-[[1-methyl-3-[3-(trifluoromethyl)phenyl]-propyl]sulfanyl]-pyridine-3-carboxylic acid amide], for which, in experiment [2], the pEC50 is 7.70. For the same molecule, the Emax in experiment [2] (retigabine 50 μM = 100%) came to 233%.
In experiment [2], `O=C(NCc1ccc(F)cc1)c1cccnc1SCCC(F)(F)c1ccc(F)c(F)c1` [compound 204, 2-[[3-(3,4-Difluoro-phenyl)-3,3-difluoro-propyl]sulfanyl]-N-[(4-fluorophenyl)-methyl]-pyridine-3-carboxylic acid amide] showed a pEC50 of 7.96. Moreover, the Emax in experiment [2] (retigabine 50 μM = 100%) was 125%.
The corresponding values for `O=C(NCC12CCC(CC1)C2)c1cccnc1SCCC(F)(F)c1ccc(F)cc1` [compound 205, N-(1-Bicyclo[2.2.1]heptanyl-methyl)-2-[[3,3-difluoro-3-(4-fluorophenyl)-propyl]sulfanyl]-pyridine-3-carboxylic acid amide] are 7.55 and 294%.
The molecule `O=C(NCC12CCC(CC1)C2)c1cccnc1SCCCc1ccc(F)cc1` [compound 206, N-(1-Bicyclo[2.2.1]heptanyl-methyl)-2-[3-(4-fluorophenyl)-propylsulfanyl]-pyridine-3-carboxylic acid amide] had a pEC50 in experiment [2] of 7.40. Moreover, in experiment [2] (retigabine 50 μM = 100%), the Emax stood at 293%.
`O=C(NCc1ccc(F)cc1)c1cccnc1SCCCc1cccc(C(F)(F)F)c1` [compound 207, N-[(4-Fluorophenyl)-methyl]-2-[3-[3-(trifluoromethyl)phenyl]-propylsulfanyl]-pyridine-3-carboxylic acid amide] showed a negative-log EC50 (pEC50) in experiment [2] of 7.47. Besides, the Emax in experiment [2] (retigabine 50 μM = 100%) came out at 119%.
In the same order, the values of `CC(C)CCNC(=O)c1cccnc1SCCCc1cccc(C(F)(F)F)c1` [compound 208, N-(3-Methyl-butyl)-2-[3-[3-(trifluoromethyl)phenyl]-propylsulfanyl]-pyridine-3-carboxylic acid amide] are 7.57 and 207%.
As for `CC(C)CCNC(=O)c1cccnc1SCCC(F)(F)c1ccc(F)c(F)c1` [compound 209, 2-[[3-(3,4-Difluoro-phenyl)-3,3-difluoro-propyl]sulfanyl]-N-(3-methyl-butyl)-pyridine-3-carboxylic acid amide], in experiment [2], the pEC50 was 8.05. The Emax in experiment [2] (retigabine 50 μM = 100%) was found to be 228%.
The molecule `O=C(NCC1C2CCC1CC2)c1cccnc1SCCC(F)(F)c1ccc(F)c(F)c1` (stereo not drawn) [compound 210, N-(7-Bicyclo[2.2.1]heptanyl-methyl)-2-[[3-(3,4-difluoro-phenyl)-3,3-difluoro-propyl]sulfanyl]-pyridine-3-carboxylic acid amide] had a pEC50 in experiment [2] of 7.85. In experiment [2] (retigabine 50 μM = 100%), the Emax came out at 276%.
Turning to `O=C(NCCO)c1cccnc1SCCC(F)(F)c1ccc(F)cc1` [compound 211, 2-[[3,3-Difluoro-3-(4-fluorophenyl)-propyl]sulfanyl]-N-(2-hydroxy-ethyl)-pyridine-3-carboxylic acid amide], the pEC50 in experiment [2] is 5.05. For the same molecule, in experiment [2] (retigabine 50 μM = 100%), the Emax was 87%.
